The text below walks through data of US7863267B2, “Use of selective chloride channel modulators to treat methamphetamine abuse” (priority 2003, dated 2011).

Where two headings read alike, the source gives them in different places.

For data set [1] the following is noted: cited from earlier work.
The test system of data set [2] is alcoholics. Briefly: CIWA-A withdrawal symptomatology before and after flumazenil in alcoholics. The format is in vivo, human. From the text:
(§1) 64 alcoholics (51 males and 13 females) voluntarily entered a treatment program to discontinue the use of alcohol. The patients were provided the appropriate information and the corresponding informed consent form was obtained from them. The patients were warned not to drink alcohol the morning on which the treatment was to be carried out to enable better evaluation of the withdrawal symptoms. Table 14 summarizes the characteristics of the patients treated associated with alcohol use.
(§2) Before starting the treatment, the patients underwent a complete medical and psychological examination. The monitoring of the patients throughout the morning included a complete blood count, a biochemical profile [creatinine, glucose, blood urea nitrogen (BUN), cholesterol (HDL and LDL), triglycerides, alkaline phosphatase, LDH (lactic dehydrogenase) and total proteins], hepatic function tests [GOT, GPT, GGT, bilirubin), electrocardiogram and, if need be, pregnancy test and x-ray examination. The exclusion criteria applied included acute or uncompensated illnesses, as well as the taking of any drug contraindicated with flumazenil. No patient was excluded after the pre-admission interview and the tests performed. Admission of one patient was postponed until their cardiac pathology was checked.
(§3) Before and after the administration of flumazenil, the withdrawal symptomatology was measured using the CIWA-A evaluation (Adinoff et al., Medical Toxicology 3:172-196 (1988)), as well as heart rate and blood pressure.
(§4) Flumazenil was administered at a dose of 0.2 mg every 3 minutes (up to a total of 2 mg/day). This quantity per dose was established to minimize the adverse side effects associated with withdrawal or interactions with other pharmaceuticals or psychopathologies.
(§5) Patients who presented marked anxiety were administered an additional dose of 192 mg of clomethiazole 30 minutes before administration of flumazenil.

Data set [3] has as its system alcoholics. Description: Heart rate and blood pressure before and after flumazenil in alcoholics. The format is in vivo, human. Also on record: Heart rate: patients with a significant reduction / Diastolic blood pressure: patients with a significant reduction: concentration or dose not given beside the values.
From the text: as §1, §2, §3, §4, §5

Data set [4] concerns alcoholics. Briefly: Adverse events during flumazenil administration in alcoholics. The format is in vivo, human.
From the text: as §1, §4, §5

The test system of data set [5] is alcoholics. Description: Follow-up after flumazenil treatment programme (therapy, dropouts). The format is in vivo, human. The procedure: Before discharge from the hospital, the following medications were prescribed: • Vitamin B complex: 1 month with one dose during breakfast and one dose during lunch. • Piracetam, or a medicament that is pharmacologically equivalent, 3 g for 1 week with one dose during breakfast and 800 mg for 1 month with one dose during breakfast and one dose during lunch; • Fluoxetine 20 mg for 2 months with one dose during breakfast; • Clomethiazole 192 mg for 1 week with one dose during breakfast and one dose during dinner and a subsequent elimination of dose during the second week; • Disulfuram 250 mg with one dose during breakfast.
As part of the treatment program, the patients were instructed to attend the outpatient treatment center for 9 months with decreasing frequency [once a week for the first three months, once every two weeks during the second three months, and once a month during the third three months].
Likewise, a semi-structured follow-up of cognitive behavior therapy was implemented. Individual and family psychotherapy was focused on 4 major interventions (cognitive restructuring, work therapy, prevention of relapse, and stress reduction) aimed at rehabilitating the social, family, work, personal and leisure life of the patient.
Table 16 statistically summarizes the results obtained before and after the treatment (at the end of 18 hours).

In data set [6] the test system is alcoholics. Description: Clinical observations during hospitalization (appetite, sleep, anxiety, desire to drink). The format is in vivo, human.
From the text: as §1, §4

The test system of data set [7] is alcoholics in the acute withdrawal phase. The conditions noted are these: 2 mg IV for 1 minute, 8 alcoholics, cited from earlier work.
Data set [8] deals with ethanol withdrawal syndrome. Particulars: cited from earlier work.
For data set [9] the following is noted: excreted unchanged, not appreciably metabolized; cited from earlier work.
Setting [10] is: after first administration, 55 patients.
The mark [11] stands for this setting: after second administration, 58 patients.
The mark [12] stands for this setting: after first administration, 53 patients.
The mark [13] stands for this setting: after second administration, 55 patients.
Where [14] appears, read: after second administration, 56 patients.

Consider `OCCOCCN1CCN(C(c2ccccc2)c2ccc(Cl)cc2)CC1` (centres unmarked) [Hydroxyzine], for which, in [1], the “Time to effects after oral administration” value was 15 to 30 min.

For `CCOC(=O)c1ncn2c1CN(C)C(=O)c1cc(F)ccc1-2` [flumazenil, ethyl 8-fluoro-5,6-dihydro-5-methyl-6-oxo-4H-imidazol[1,5-a][1,4]benzodiazepine-3-carboxylate], the “CIWA-A scoring: patients with a significant reduction” value with alcoholics [2] (after first administration of flumazenil (0.2 mg every 3 min up to 2 mg/day), 55 patients) is recorded as 47.3%. In the data set with alcoholics [2] (setting [10]), the “CIWA-A scoring: patients with a significant increase” value is reported as 12.7% and the “CIWA-A scoring: patients with no change” value is listed as 40.0%. In the data set with alcoholics [2] (setting [11]), the “CIWA-A scoring: patients with a significant increase” value is listed as 8.6%, the “CIWA-A scoring: patients with a significant reduction” value stood at 36.2% and the “CIWA-A scoring: patients with no change” value turned out to be 55.2%. Moreover, the “CIWA-A mean after treatment” value in the data set on alcoholics [2] (after treatment (at the end of 18 hours), n=54, before treatment mean 4.13) is “.76”. Further, in the data set with alcoholics [3] (setting [12]), the “Diastolic blood pressure: patients with a significant increase” value is reported as 18.9%, the “Diastolic blood pressure: patients with a significant reduction” value stood at 34%, the “Diastolic blood pressure: patients with no change” value turned out to be 47.2% and the “Systolic blood pressure: patients with a significant increase” value is listed as 15.1%. In addition, in the data set with alcoholics [3] (setting [12]), the “Systolic blood pressure: patients with a significant reduction” value is 47.2% and the “Systolic blood pressure: patients with no change” value is listed as 37.7%. In addition, in the data set on alcoholics [3] (setting [10]), the “Heart rate: patients with a significant increase” value was found to be 9.1%, the “Heart rate: patients with a significant reduction” value worked out at 50.9% and the “Heart rate: patients with no change” value amounted to 40.0%. Further, in the data set with alcoholics [3] (setting [13]), the “Heart rate: patients with a significant reduction” value came to 41.8% and the “Heart rate: patients with no change” value is reported as 58.2%. Besides, in the data set with alcoholics [3] (setting [14]), the “Diastolic blood pressure: patients with a significant increase” value stood at 19.6%, the “Diastolic blood pressure: patients with a significant reduction” value is reported as 28.6%, the “Diastolic blood pressure: patients with no change” value is reported as 51.8% and the “Systolic blood pressure: patients with a significant increase” value worked out at 16.1%. In the data set on alcoholics [3] (setting [14]), the “Systolic blood pressure: patients with a significant reduction” value is recorded as 28.6 and the “Systolic blood pressure: patients with no change” value is recorded as 55.4%. Besides, the “Diastolic blood pressure mean after treatment” value with alcoholics [3] (after treatment (at the end of 18 hours), n=51, before treatment mean 86.27) turned out to be 82.75. The “Systolic blood pressure mean after treatment” value with alcoholics [3] (after treatment (at the end of 18 hours), n=51, before treatment mean 135.2) was 126.67. Moreover, the “Heart rate mean after treatment” value in the data set on alcoholics [3] (after treatment (at the end of 18 hours), n=53, before treatment mean 81.42, in beats/min (unit assumed)) is on record as 75.02. Further, the “Patients who suffered headache during or immediately following administration” value with alcoholics [4] (disappeared after a few minutes or after metamizole magnesium) is “Approximately 10%”. Further, the “First administration of flumazenil interrupted and postponed to the following day” value in the data set with alcoholics [4] (of the 64 patients treated, increase in confusion, distal tremors or anxiety) is recorded as 3 cases. In addition, in the data set with alcoholics [5] (Month 1, N 43), the “Follow-up: Dropouts” value is recorded as 4.7%; the “Follow-up: Therapy and Disulfiram” value turned out to be 95.3%; the “Follow-up: Therapy without Disulfiram” value is reported as 4.5%. Besides, in the data set on alcoholics [5] (Month 3, N 22), the “Follow-up: Dropouts” value was 9.1%; the “Follow-up: Therapy and Disulfiram” value is given as 86.4%. For the same compound, in the data set with alcoholics [5] (Month 6, N 12), the “Follow-up: Dropouts” value was determined as 25%; the “Follow-up: Therapy and Disulfiram” value came to 75%. Moreover, in the data set with alcoholics [5] (Month 9, N 8), the “Follow-up: Dropouts” value was determined as 12.5%; the “Follow-up: Therapy and Disulfiram” value came to 75%; the “Follow-up: Therapy without Disulfiram” value is reported as 12.5%. In the data set with alcoholics [6], the “Psychophysiological functions such as appetite and sleep” value is given as “regained very rapidly”; the “Spontaneous verbal report from the majority of the patients” value is “absence of anxiety and of the desire to drink alcohol”. Also, in data set [7] (in other cases), the “Withdrawal symptoms after flumazenil” value is reported as “the withdrawal symptoms disappeared but returned a few hours later”. Besides, the “Withdrawal symptoms after flumazenil” value in [7] (in some cases, especially sweats and anxiety) was “immediate worsening of the withdrawal symptoms”. In addition, the “Anxiogenic withdrawal effects (social interaction test, elevated plus maze)” value in data set [8] (rat models of the ethanol withdrawal syndrome) is reported as “reverse anxiogenic withdrawal effects”. Also, the “Agitation and stereotyped behavior induced by withdrawal from long-term ethanol exposure” value in data set [8] (rats) is “prevent the agitation and stereotyped behavior”.

For the compound `NCC1(CC(=O)O)CCCCC1` [Gabapentin], the Elimination half-life in data set [9] is 5 to 7 h.
